Like-named read-outs stand apart in the source and are kept apart here.
Assays:
[1] = test system: P. falciparum stage V gametocytes; experiment: Gametocytocidal ATP bioluminescence assay (single point 5 μM and 1 μM, dose-response); format: cell-based, Plasmodium falciparum; conditions: for Ratio IC50 HepG2/IC50 P. falciparum: IC50 HepG2 divided by IC50 P. falciparum gametocytes
Description: Purified stage IV-V gametocytes were obtained as previously described [10]. Single point ATP bioluminescence assay and dose–response of positive hits was determined in accordance with the previously published protocol [10].

[2] = test system: luciferase reaction (BacTiter-Glo); experiment: Interference assay (inhibition of the BacTiter-Glo luciferase reaction); format: biochemical; set-up: concentration or dose not given beside the values; conditions: ATP interference assay
Description: To discard possible false-positive results, we performed an interference assay in parallel. […] […]. The ATP solution was made by dissolving ATP powder (ATP standard from the ATPlite 1 step assay kit, reference 6016731, Perkin Elmer) in culture medium. The positive control used was the Luciferase Inhibitor I Calbiochem (Merck, 119113) at 100 μM.

[3] = test system: P. falciparum asexual stages; conditions: TCAMS data, cited from earlier work
[4] = test system: HepG2 cells; experiment: Cytotoxicity in HepG2 cells (intracellular ATP, ATPlite, 48 h); format: cell-based, human; conditions: for IC50: HepG2 cells, IC50 per ratio column head, unit inferred; for Ratio IC50 HepG2/IC50 P. falciparum: IC50 HepG2 divided by IC50 P. falciparum gametocytes
[5] = test system: P. falciparum stage V gametocytes; experiment: microbe, parasite or virus in culture; set-up: BacTiter-Glo ATP luminescence viability of purified stage V gametocytes in 384-well plates, per cent inhibition versus DMSO; conditions: Plasmodium falciparum, 48 h, read-out: % Inhibition
[6] = Cytotoxicity in HepG2 cells (intracellular ATP, ATPlite, 48 h); format: cell-based, human; conditions: human, HepG2 cells
[7] = P. falciparum gametocytes, average, read-out: IC50 Pf Gametocytes average, IC50 (µM) average
[8] = sexual stages (gametocytes), dose-response, read-out: IC50 sexual
[9] = asexual stages, read-out: IC50 asexual
[10] = Plasmodium falciparum, P. falciparum gametocytes, average, read-out: IC50 Pf Gametocytes average, IC50 (µM) average
[11] = P. falciparum asexual stages, read-out: IC50 (µM) Pf asexual stages
[12] = IC50 per ratio column head, unit inferred, read-out: Cytotoxicity in HepG2

| SMILES | Ratio IC50 HepG2/IC50 P. falciparum [1] | IC50 [1, 7] [µM] | IC50 [1, 8] [µM] | % Control luminiscence [2] [%] | IC50 [3, 9] [µM] | IC50 [4] [nM] | IC50 [1, 10] [µM] | IC50 ([1]; Plasmodium falciparum, sexual stages (gametocytes), dose-response, read-out: IC50 sexual) [µM] | IC50 [3, 11] [µM] | inhibition at 5 µM [5] [%] | IC50 ([1]; Plasmodium falciparum, P. falciparum gametocytes, dose-response, average, read-out: IC50 Pf Gametocytes average IC50 (µM) average) [µM] | Ratio IC50 HepG2/IC50 P. falciparum [4] | IC50 at 48 h [6, 12] [µM] | IC50 at 48 h ([6]; read-out: Cytotoxicity in HepG2 IC50 (µM) Malaria DPU) [µM] |
| --- | --- | --- | --- | --- | --- | --- | --- | --- | --- | --- | --- | --- | --- | --- |
| COc1ccc(-c2cnn3ccc(Nc4cc(OC)c(OC)c(OC)c4)nc23)cc1OC [TCMDC-134383] | 8 | 1.62 | 1.62 | 100 | 0.65 | 12900 | – | – | – | – | – | – | – | – |
| Cc1ccccc1OCC(O)CNC1CCC(NCC(O)COc2ccccc2C)CC1 (stereo not shown) [TCMDC-125142] | 26 | 0.14 | 0.144 | 99 | 1.19 | 3780 | – | – | – | – | – | – | – | – |
| COc1ccc(CCNCCCCNCCc2ccc(OC)c3ccccc23)c2ccccc12 [TCMDC-137961] | <0.6 | > 5 | – | 95 | 0.453 | 3140 | – | – | – | – | – | – | – | – |
| COc1cc2c(cc1CCNCCCCNCCc1cc3c(cc1OC)CCCC3)CCCC2 [TCMDC-137319] | <19 | 0.08 | 0.084 | 85 | 0.996 | < 1560 | – | – | – | – | – | – | – | – |
| COc1ccc(CNC2Cc3ccccc3C2)cc1-c1ccc(S(=O)(=O)NCCN2CCCC2)cc1 [TCMDC-132248] | 6 | 1.38 | 1.38 | 100 | 0.582 | 8280 | – | – | – | – | – | – | – | – |
| COc1cc(NC(=O)c2sc(-c3ccc(Cl)cc3)cc2NC(=O)c2ccncc2)ccc1OCCN1CCCC1 [TCMDC-135398] | – | 0.15 | – | 100 | 0.031 | 3230 | – | – | – | – | – | – | – | – |
| O=C(COc1ccccc1)N(Cc1ccc(-c2ccc(CNC3Cc4ccccc4C3)cc2)cc1)C1CCNCC1 [TCMDC-141450] | 8 | 0.99 | 0.987 | 100 | 1.01 | 7800 | – | – | – | – | – | – | – | – |
| CN1CCC(C(=O)N(Cc2ccc(-c3ccc(CNCCc4ccccc4)cn3)cc2)C2CCN(Cc3ccccc3)CC2)CC1 [TCMDC-141552] | 10 | 0.9 | 0.897 | 95 | 0.787 | 9270 | – | – | – | – | – | – | – | – |
| CN1CCN(CCCN(Cc2cccc(-c3cccc(CNC4CCCC4)c3)c2)C(=O)CCC2CCCC2)CC1 [TCMDC-140555] | 9 | 0.81 | 0.807 | 100 | 0.675 | 7500 | – | – | – | – | – | – | – | – |
| CCN(CC)CCCn1c(N)c(-c2nc3ccccc3[nH]2)c2nc(C#N)c(C#N)nc21 [TCMDC-123680] | 62 | 0.14 | – | 100 | 0.267 | 8700 | – | – | – | – | – | – | – | – |
| CC(Cc1ccc(C(=O)Nc2ccc(CC(C)NCCc3cccc(Cl)c3)cc2)cc1)NCCc1ccc(C(F)(F)F)cc1 (stereo not shown) [TCMDC-139790] | 11 | 0.31 | 0.307 | 100 | 0.57 | 3300 | – | – | – | – | – | – | – | – |
| Cc1nn(CC(C)C)c2sc(C(=O)N3CCN(S(=O)(=O)c4ccc(C#N)cc4)CC3)cc12 [TCMDC-125045] | >12 | 2.09 | 2.09 | 92 | 0.739 | > 25000 | – | – | – | – | – | – | – | – |
| CN(C)CCNCc1cccc(-c2ccc3c(Nc4ccc(Oc5ccccn5)cc4)ccnc3c2)c1 [TCMDC-138493] | 20 | 0.22 | – | 100 | 0.233 | 4490 | – | – | – | – | – | – | – | – |
| COc1ccc(CNCCc2cccs2)cc1-c1cccc(S(=O)(=O)NCCN2CCCC2)c1 [TCMDC-132479] | 7 | 1.68 | 1.68 | 94 | 0.877 | 11400 | – | – | – | – | – | – | – | – |
| CC(C)CNCc1cccc(-c2cccc(CN(CCCN3CCN(C)CC3)C(=O)NC3CCCCC3)c2)c1 [TCMDC-140633] | 9 | 1.78 | 1.78 | 96 | 0.761 | 16800 | – | – | – | – | – | – | – | – |
| COc1ccc(-c2cc(-c3ccc(S(C)(=O)=O)cc3)cnc2N)cn1 [TCMDC-133351] | – | – | – | 100 | 0.187 | – | 1.18 | 1.18 | 0.19 | – | – | – | – | – |

| SMILES | Ratio IC50 HepG2/IC50 P. falciparum [1] | IC50 [1, 7] [µM] | IC50 [1, 8] [µM] | % Control luminiscence [2] [%] | IC50 [3, 9] [µM] | IC50 [4] [nM] | IC50 [1, 10] [µM] | IC50 ([1]; Plasmodium falciparum, sexual stages (gametocytes), dose-response, read-out: IC50 sexual) [µM] | IC50 [3, 11] [µM] | inhibition at 5 µM [5] [%] | IC50 ([1]; Plasmodium falciparum, P. falciparum gametocytes, dose-response, average, read-out: IC50 Pf Gametocytes average IC50 (µM) average) [µM] | Ratio IC50 HepG2/IC50 P. falciparum [4] | IC50 at 48 h [6, 12] [µM] | IC50 at 48 h ([6]; read-out: Cytotoxicity in HepG2 IC50 (µM) Malaria DPU) [µM] |
| --- | --- | --- | --- | --- | --- | --- | --- | --- | --- | --- | --- | --- | --- | --- |
| C=CCNC(CCCCC)c1ccc(OCCOc2ccc(C(CCCCC)NCC=C)cc2)cc1 (stereo not shown) [TCMDC-137483] | 6.41 | 0.91 | 0.905 | 100 | 0.567 | 5800 | – | – | – | – | – | – | – | – |
| c1ccc(CSC2=NNC(c3ccccn3)S2)cc1 (stereo not shown) [TCMDC-123769] | >3 | 7.98 | 7.98 | 100 | 1.48 | > 25000 | – | – | – | – | – | – | – | – |
| CN1CCN(CCCN(Cc2ccc(-c3ccc(CNC4CCCC4)cc3)cc2)C(=O)CCC2CCCC2)CC1 [TCMDC-140560] | 11 | 0.53 | 0.535 | 100 | 0.886 | 6000 | – | – | – | – | – | – | – | – |
| Nc1ncc(-c2ccc3nccc(-c4ccncc4)c3c2)cc1S(=O)(=O)N1CCCCC1 [TCMDC-134265] | >12 | 2.07 | 2.07 | 100 | 0.581 | > 25000 | – | – | – | – | – | – | – | – |
| CCc1[nH]nc(C(=O)NC2CCN(CC3(c4ccc(OC)cc4)CCCCC3)CC2)c1C [TCMDC-124840] | – | > 10 | – | 100 | 0.892 | > 25000 | – | – | – | – | – | – | – | – |
| CCc1c(CCNCCCCCCNCCc2ccc([N+](=O)[O-])cc2)ccc(OC)c1OC [TCMDC-132066] | 12 | 0.54 | 0.537 | 100 | 0.727 | 6670 | – | – | – | – | – | – | – | – |
| Cc1cc(NCCCCCCNc2cc(C)nc3c(C)cccc23)c2cccc(C)c2n1 [TCMDC-125702] | >7.5 | 3.32 | 3.31 | 100 | 0.406 | > 25000 | – | – | – | – | – | – | – | – |
| CCN(CC)CCN(Cc1ccc(-c2ccc(C(F)(F)F)cc2)cc1)C(=O)c1ccc(-c2ccc(NC(=O)OC)cc2C)cc1 [TCMDC-141558] | 1.46 | 3.71 | 3.71 | 100 | 0.929 | 5400 | – | – | – | – | – | – | – | – |
| Nc1cc(C=Cc2ccc([N+](=O)[O-])o2)nc2ccccc12 [TCMDC-142295] | 58 | – | – | – | 0.367 | – | 0.2 | – | 0.37 | 116 | 0.21 | 59 | 11.7 | 12 |
| Cc1ccc(Nc2nc(-c3ccccn3)cs2)nc1 [TCMDC-125854] | – | – | 0.159 | 100 | 0.752 | – | 0.16 | – | – | – | – | – | – | – |
| CS(=O)(=O)c1cccc(-c2cnc3[nH]cc(-c4cccc(CCN)c4)c3c2)c1 [TCMDC-136307] | >53 | – | – | – | 1.56 | – | 0.47 | – | 1.56 | – | – | >53 | > 25 | – |
| Cc1sc2ncnc(Sc3nnc(N)s3)c2c1C [TCMDC-124542] | >83 | – | – | – | 0.399 | – | 0.3 | – | 0.4 | – | – | >83 | > 25 | – |
| c1cc(C2=N[C@H]3CCCC[C@@H]3N2)ccc1OCCCOc1ccc(C2=N[C@@H]3CCCC[C@H]3N2)cc1 [TCMDC-137803] | >54 | – | 0.467 | – | 0.731 | – | 0.47 | – | – | – | – | >54 | > 25 | – |
| NCc1ccc(CNCc2cccc(-c3ccc(-c4nc5cc(C(F)(F)F)ccc5[nH]4)cc3)c2)cc1 [TCMDC-132811] | 28 | – | 0.855 | – | 0.261 | – | 0.86 | – | – | – | – | 28 | 24.3 | – |
| N=C(N)Nc1nc(-c2ccc(NC(=O)Nc3cccc(-c4csc(NC(=N)N)n4)c3)cc2)cs1 [TCMDC-139559] | >17 | – | – | – | 1.01 | – | 1.43 | – | – | – | – | >17 | > 25 | – |
| N=C(N=C(NCCCCCCNC(=NC(=N)Nc1ccc(Cl)cc1)N1CCCCC1)N1CCCCC1)Nc1ccc(Cl)cc1 [TCMDC-131811] | 61 | – | 0.375 | – | 0.256 | – | 0.38 | – | – | – | – | 61 | 22.9 | – |
